Where two headings read alike, the source gives them in different places.
What was measured:
[1] = test system: cortico-striatal co-cultures (YAC128); details: Y128, 1 μM, n=4
Method: For cortico-striatal co-cultures, brains were removed and transferred to Hibernate E medium (Thermo Fisher Sci., catalog no: A1247601) for up to 24 h. […] The cortex and striatum were micro-dissected in ice-cold Hank's balanced salt solution (HBSS; Gibco), then diced and pooled per genotype. […] The dissociated tissues were centrifuged at 145×g for 5 min and the pellet was then triturated with a pipette five to six times. […] The cells were fed with ⅓ volume fresh medium every fifth day.
The stained cells were washed twice with PBS and fixed with ice-cold methanol for 15 min at room temperature. Mitochondria were visualized using the SP5 confocal microscope (Leica). 8 random areas were sampled. Circularity was determined using ImageJ with an internal plugin.

[2] = test system: WT and YAC128 striatal neurons; details: 1 μM, 24 h
Method: To obtain pure cortical and striatal neurons, tissue was micro-dissected in HBSS supplemented with 0.3% fatty acid free BSA (Sigma-Aldrich, catalog no: A8806). Tissue from embryos with the same genotype were pooled and digested with 0.003% trypsin in HBSS, then mechanically digested. […] (Sigma-Aldrich, catalog no: T9128) was used to block the trypsin. […] Cultures were incubated at 37° C. with 5% CO2. After 3 days in vitro (DIV) half of the medium was replaced with fresh supplemented Neurobasal medium containing 5-fluoro-2′-deoxyuridine (5-FdU, 5 μM final concentration in the medium; Sigma-Aldrich, catalog no: F0503) to reduce dividing non-neuronal cells. At DIV 7 half of the medium was again replaced with fresh, and cells were used at DIV12.
The ultrathin sections were prepared using Leica Ultracut UCT (Leica, Vienna, Austria) and contrasted with uranyl acetate and lead citrate. […] All mitochondria of 6-7 different cells were snapped per condition and per independent experiment. Number of mitochondria-ER contacts sites (MERCS), MERCS length, ER and mitochondria profile areas, ER width and mitochondria aspect ratio (the ratio between the major and minor axes of mitochondria) were quantified. Number of MERCS per mitochondria was obtained by dividing number of MERCS per number of mitochondria profiles. Percentage of mitochondria surface covered by ER was measured by dividing the MERCS length by mitochondria perimeter and multiplying by 100. MERCS were considered when the distance between ER and mitochondria <40 nm.

HD human lymphoblasts = details: 24 h pre-treatment
Method: The lymphoblasts were passaged 1:3 every five to six days. For conducting experiments, the lymphoblasts were collected and centrifuged at 145×g for 5 min. The cell pellet was resuspended in fresh growth medium. Lymphoblasts between passage number 5 and 20 were used in each experiment.
(§1) Mitochondrial membrane potential (Δψm) was assessed in cortical and striatal neurons using the positively changed fluorescent probe TMRM (tetramethylrhodamine methyl ester) (Thermo Fisher Sci., catalog no: T668) and in cortical/striatal co-cultures and lymphoblasts using an equivalent probe, TMRE (tetramethylrhodamine ethyl ester) (Abcam, catalog no. ab113852).
(§2) TMRE assay: Primary neurons and lymphoblasts in suspension were cultured in 6-well plates.

[3] = test system: Nrf2/ARE genes (Nqo1, Hmox1, GCLc) in HD lymphoblasts; details: 5 μM, 24 h
Method: The qPCR was performed using the ABI Prism 7500 Sequence Detection System (Applied Biosystems). Each sample was run in triplicate. Gene expression was normalized to Rpl13a or UBC mRNA.

[4] = test system: isolated YAC128 striatal mitochondria; details: wild-type mice, 30 mg/kg/day oral gavage 45 days
Method: In isolated mitochondria, H2O2 levels were measured using the Amplex Red-horseradish peroxidase method. […] The homogenate was then dispensed into a 96-multiwell plate and fluorescence was measured in a spectrofluorometer microplate reader by excitation at 570 nm and emission at 585 nm every 30 s, for 20 min. After 10 min of basal reading, mitochondria were challenged with antimycin A (2 μM). Results were analyzed as time-dependent changes in fluorescence.
1.5-month-old WT and hemizygous YAC128 mice (males and females in equal proportion) were divided into four groups. […] Mice were divided 4 animals per cage enriched in corn-husk nesting material and paper rolls, each cage representing one individual experiment, for a total of 9 animals per group. Pridopidine was dissolved in deionized sterile water. Animals were weighed every week and the volume of treatment adjusted accordingly. Mice were behaviorally tested in rotarod immediately before commencing treatment and on the day before finishing treatment. Tests were conducted blindly at a set time during the day. Mice were sacrificed 24 h after administration of the final pridopidine dose, and mitochondria isolated from the striatum.
The final homogenate was then centrifuged at 1,100×g for 2 min, at 4° C. […] Protein content of isolated mitochondria was quantified by Bio-Rad assay (Bio-Rad, catalog no. 5000006).

Y128 neurons = details: 5 μM given 24 h before 0.1 mM H2O2 for 6 h, p=0.001
Method: as §1, §2

[5] = YAC128 striatal neurons, p<0.0001

For `CCCN1CCC(c2cccc(S(C)(=O)=O)c2)CC1` [Pridopidine, 4-[3-(methylsulfonyl)phenyl]-1-propyl-piperidine], the “mitochondrial morphology (percentage of circular and elongated mitochondria)” value [1] was “corrects Y128 morphology to WT levels”, the “percent of mitochondrial surface in contact with ER” value ([2]; WT neurons, p=0.0339) was “significantly increases the percent of mitochondrial surface in contact with ER” and the “proportion of elongated mitochondria (aspect ratio)” value ([2]; Y128 striatal neurons, p=0.0044) was “increases the proportion of elongated mitochondria in Y128 striatal neurons to WT levels”. The ER width ([2]; YAC128 neurons, p<0.0001) was “restores the abnormal ER width”, the “number of MERCS per mitochondria” value [2, 5] was “increasing the number of MERCS per mitochondria” and the “percent of mitochondrial surface in contact with ER” value [2, 5] was “increasing the number of MERCS per mitochondria and the percent of mitochondrial surface in contact with ER”. For the same compound, the “MMP (TMRE signal) after H2O2” value (HD human lymphoblasts; HD human lymphoblasts, 5 μM, then H2O2 6 h) was “significant rescue effect”, the “restoration of membrane potential” value (HD human lymphoblasts; human lymphoblasts, 10 μM, then 0.1 mM H2O2 6 h, p=0.1389) was “less efficacious and shows less restoration of membrane potential” and the “concentration of maximal effect on MMP (bell-shaped dose-response)” value (HD human lymphoblasts; human lymphoblasts, then 0.1 mM H2O2 6 h) was 5 µM. The “GCLc expression (mRNA)” value [3] was “shows a trend towards upregulation”, the “expression of Nqo1 (mRNA)” value ([3]; p=0.0010) was “significantly upregulates” and the “expression of Hmox1 (mRNA)” value ([3]; p=0.0308) was “significantly upregulates”. For the same compound, the “mitochondrial H2O2 levels” value [4] was “does not affect” and the “H2O2-induced loss of MMP (TMRE)” value (Y128 neurons) was “completely reverts this H2O2-induced loss of MMP”.
